Laboratory results as given in US20230085307A1, “PYRIDAZINONE COMPOUND AND HERBICIDE” (NISSAN CHEMICAL CORPORATION, priority 2019, published 2023).

Tests used:
[1] = test system: late watergrass; experiment: Test Example 2: herbicidal activity, application during weed generation under submerged conditions (Table 17, symbol A); format: in vivo, late watergrass (Echinochloa oryzicola); conditions: AAH 320 g/ha; application during weed generation, submerged conditions
Summary of the method: (§1)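 Alluvial soil in Wagner pots was flooded to 4 cm depth and sown with the three weeds together; pots were kept in a greenhouse at 25° C. to 30° C. At the one to two leaf stage, an emulsion formulation diluted in water to a set rate went onto the water surface; scored three weeks later.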

[2] = test system: green foxtail; experiment: Test Example 5: herbicidal effect by foliage application, plastic box (Table 20, symbol G); format: in vivo, green foxtail (Setaria viridis); conditions: foliage application
Summary of the method: (§2)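 Plants sown in sterilized diluvial soil and grown 14 days in a greenhouse at 25° C to 30° C, then sprayed on the foliage with the compound's emulsion diluted in water to a predetermined herbicide amount. Injury to weeds and crops scored three weeks after application on a visual rating scale.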

[3] = test system: windgrass; experiment: Test Example 5: herbicidal effect by foliage application, plastic box (Table 20, symbol L); format: in vivo, windgrass (Apera spica-venti); conditions: foliage application
Summary of the method: as §2

[4] = test system: wild oat; experiment: Test Example 4: herbicidal effect by soil treatment (Table 19, symbol I); format: in vivo, wild oat (Avena fatua); conditions: amount of applied herbicide 320 g/ha
Summary of the method: (§3)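 Seeds were sown in sterilized diluvial soil and covered with about 1.5 cm of soil. An emulsion formulation diluted with water to a predetermined herbicide amount was sprayed evenly onto the soil surface. Plants grew in a greenhouse at 25° C. to 30° C., and the effect was scored three weeks after application using criteria from an earlier test.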

[5] = test system: Italian ryegrass; experiment: Test Example 5: herbicidal effect by foliage application, plastic box (Table 20, symbol K); format: in vivo, Italian ryegrass (Lolium multiflorum); conditions: foliage application
Summary of the method: as §2

[6] = test system: green foxtail; experiment: Test Example 4: herbicidal effect by soil treatment (Table 19, symbol G); format: in vivo, green foxtail (Setaria viridis); conditions: amount of applied herbicide 320 g/ha
Summary of the method: as §3

[7] = test system: chickweed; experiment: Test Example 4: herbicidal effect by soil treatment (Table 19, symbol P); format: in vivo, common chickweed (Stellaria media); conditions: amount of applied herbicide 320 g/ha
Summary of the method: as §3

[8] = test system: barnyard grass; experiment: Test Example 5: herbicidal effect by foliage application, plastic box (Table 20, symbol H); format: in vivo, barnyard grass (Echinochloa crus-galli); conditions: foliage application
Summary of the method: as §2

[9] = test system: southern crabgrass; experiment: Test Example 4: herbicidal effect by soil treatment (Table 19, symbol F); format: in vivo, southern crabgrass (Digitaria ciliaris); conditions: amount of applied herbicide 320 g/ha
Summary of the method: as §3

[10] = test system: Chinese sprangletop; experiment: Test Example 3: herbicidal effect by foliage application, Wagner pot (Table 18, symbol D); format: in vivo, chinese sprangletop (Leptochloa chinensis); conditions: amount of applied herbicide 320 g/ha
Summary of the method: (§4)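 Plants were sown in alluvial soil held under 0.1–0.5 cm standing water and grown 14 days in a greenhouse at 25–30 °C. An emulsifiable formulation, water-diluted to the set dose, was then sprayed onto the foliage, and effects were scored three weeks later using previously defined criteria.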

[11] = test system: chickweed; experiment: Test Example 5: herbicidal effect by foliage application, plastic box (Table 20, symbol P); format: in vivo, common chickweed (Stellaria media); conditions: foliage application
Summary of the method: as §2

[12] = test system: Italian ryegrass; experiment: Test Example 4: herbicidal effect by soil treatment (Table 19, symbol K); format: in vivo, Italian ryegrass (Lolium multiflorum); conditions: amount of applied herbicide 320 g/ha
Summary of the method: as §3

[13] = test system: barnyard grass; experiment: Test Example 4: herbicidal effect by soil treatment (Table 19, symbol H); format: in vivo, barnyard grass (Echinochloa crus-galli); conditions: amount of applied herbicide 320 g/ha
Summary of the method: as §3

[14] = test system: velvetleaf; experiment: Test Example 4: herbicidal effect by soil treatment (Table 19, symbol M); format: in vivo, velvetleaf (Abutilon theophrasti); conditions: amount of applied herbicide 320 g/ha
Summary of the method: as §3

[15] = test system: redroot pigweed; experiment: Test Example 4: herbicidal effect by soil treatment (Table 19, symbol N); format: in vivo, redroot pigweed (Amaranthus retroflexus); conditions: amount of applied herbicide 320 g/ha
Summary of the method: as §3

[16] = test system: persian speedwell; experiment: Test Example 4: herbicidal effect by soil treatment (Table 19, symbol R); format: in vivo, Persian speedwell (Veronica persica); conditions: amount of applied herbicide 320 g/ha
Summary of the method: as §3

[17] = test system: barnyard grass; experiment: Test Example 3: herbicidal effect by foliage application, Wagner pot (Table 18, symbol H); format: in vivo, barnyard grass (Echinochloa crus-galli); conditions: amount of applied herbicide 320 g/ha
Summary of the method: as §4

[18] = test system: redroot pigweed; experiment: Test Example 5: herbicidal effect by foliage application, plastic box (Table 20, symbol N); format: in vivo, redroot pigweed (Amaranthus retroflexus); conditions: foliage application
Summary of the method: as §2

[19] = test system: rice flat sedge; experiment: Test Example 3: herbicidal effect by foliage application, Wagner pot (Table 18, symbol E); format: in vivo, rice flat sedge (Cyperus iria); conditions: amount of applied herbicide 320 g/ha
Summary of the method: as §4

[20] = test system: southern crabgrass; experiment: Test Example 5: herbicidal effect by foliage application, plastic box (Table 20, symbol F); format: in vivo, southern crabgrass (Digitaria ciliaris); conditions: foliage application
Summary of the method: as §2

[21] = test system: Japanese bulrush; experiment: Test Example 2: herbicidal activity, application during weed generation under submerged conditions (Table 17, symbol B); format: in vivo, Japanese bulrush (Schoenoplectus juncoides); conditions: AAH 320 g/ha; application during weed generation, submerged conditions
Summary of the method: as §1

[22] = test system: lambsquarters; experiment: Test Example 5: herbicidal effect by foliage application, plastic box (Table 20, symbol O); format: in vivo, lambsquarters (Chenopodium album); conditions: foliage application
Summary of the method: as §2

[23] = test system: persian speedwell; experiment: Test Example 5: herbicidal effect by foliage application, plastic box (Table 20, symbol R); format: in vivo, Persian speedwell (Veronica persica); conditions: foliage application
Summary of the method: as §2

[24] = test system: blackgrass; experiment: Test Example 4: herbicidal effect by soil treatment (Table 19, symbol J); format: in vivo, blackgrass (Alopecurus myosuroides); conditions: amount of applied herbicide 320 g/ha
Summary of the method: as §3

[25] = test system: wild oat; experiment: Test Example 5: herbicidal effect by foliage application, plastic box (Table 20, symbol I); format: in vivo, wild oat (Avena fatua); conditions: foliage application
Summary of the method: as §2

[26] = test system: windgrass; experiment: Test Example 4: herbicidal effect by soil treatment (Table 19, symbol L); format: in vivo, windgrass (Apera spica-venti); conditions: amount of applied herbicide 320 g/ha
Summary of the method: as §3

[27] = test system: lambsquarters; experiment: Test Example 4: herbicidal effect by soil treatment (Table 19, symbol O); format: in vivo, lambsquarters (Chenopodium album); conditions: amount of applied herbicide 320 g/ha
Summary of the method: as §3

[28] = test system: velvetleaf; experiment: Test Example 5: herbicidal effect by foliage application, plastic box (Table 20, symbol M); format: in vivo, velvetleaf (Abutilon theophrasti); conditions: foliage application
Summary of the method: as §2

[29] = test system: blackgrass; experiment: Test Example 5: herbicidal effect by foliage application, plastic box (Table 20, symbol J); format: in vivo, blackgrass (Alopecurus myosuroides); conditions: foliage application
Summary of the method: as §2

[30] = test system: oval-leafed pondweed; experiment: Test Example 2: herbicidal activity, application during weed generation under submerged conditions (Table 17, symbol C); format: in vivo, oval-leafed pondweed (Monochoria vaginalis); conditions: AAH 320 g/ha; application during weed generation, submerged conditions
Summary of the method: as §1

[31] = AAH 320 g/ha, evaluated three weeks after application
[32] = 320 g/ha, three weeks after application

Compound: CCOC(=O)OC(C)Oc1c(C)nn(C)c(=O)c1-c1c(-c2ccc(OC(F)F)cc2)sc2ccc(F)cc12 (stereo not drawn) [2-308]
- herbicidal effect rating, A: late watergrass [1]: 3 (Herbicidal rate of 40% or more and less than 70%)
- G: green foxtail, herbicidal effect (criteria 0-5) [2, 31]: 5 (Herbicidal rate of 90% or more (almost completely withered))
- L: windgrass, herbicidal effect (criteria 0-5) [3, 31]: 0 (Herbicidal rate of 5% or less (almost no effect))
- herbicidal effect on I: wild oat [4]: 0 (Herbicidal rate of 5% or less (almost no effect))
- K: Italian ryegrass, herbicidal effect (criteria 0-5) [5, 31]: 0 (Herbicidal rate of 5% or less (almost no effect))
- herbicidal effect on G: green foxtail [6]: 0 (Herbicidal rate of 5% or less (almost no effect))
- herbicidal effect on P: chickweed [7]: 0 (Herbicidal rate of 5% or less (almost no effect))
- H: barnyard grass, herbicidal effect (criteria 0-5) [8, 31]: 4 (Herbicidal rate of 70% or more and less than 90%)
- herbicidal effect on F: southern crabgrass [9]: 0 (Herbicidal rate of 5% or less (almost no effect))
- herbicidal effect on D: Chinese sprangletop [10]: 3 (Herbicidal rate of 40% or more and less than 70%)
- P: chickweed, herbicidal effect (criteria 0-5) [11, 31]: 5 (Herbicidal rate of 90% or more (almost completely withered))
- herbicidal effect on K: Italian ryegrass [12]: 0 (Herbicidal rate of 5% or less (almost no effect))
- herbicidal effect on H: barnyard grass [13]: 0 (Herbicidal rate of 5% or less (almost no effect))
- herbicidal effect on M: velvetleaf [14]: 0 (Herbicidal rate of 5% or less (almost no effect))
- herbicidal effect on N: redroot pigweed [15]: 0 (Herbicidal rate of 5% or less (almost no effect))
- herbicidal effect on R: persian speedwell [16]: 5 (Herbicidal rate of 90% or more (almost completely withered))
- herbicidal effect on H: barnyard grass [17]: 5 (Herbicidal rate of 90% or more (almost completely withered))
- N: redroot pigweed, herbicidal effect (criteria 0-5) [18, 31]: 4 (Herbicidal rate of 70% or more and less than 90%)
- herbicidal effect on E: rice flat sedge [19]: 4 (Herbicidal rate of 70% or more and less than 90%)
- F: southern crabgrass, herbicidal effect (criteria 0-5) [20, 31]: 1 (Herbicidal rate of 5% or more and less than 20%)
- herbicidal effect rating, B: Japanese bulrush [21]: 0 (Herbicidal rate of 5% or less (almost no effect))
- O: lambsquarters, herbicidal effect (criteria 0-5) [22, 31]: 5 (Herbicidal rate of 90% or more (almost completely withered))
- R: persian speedwell, herbicidal effect (criteria 0-5) [23, 31]: 5 (Herbicidal rate of 90% or more (almost completely withered))
- herbicidal effect on J: blackgrass [24]: 0 (Herbicidal rate of 5% or less (almost no effect))
- I: wild oat, herbicidal effect (criteria 0-5) [25, 31]: 0 (Herbicidal rate of 5% or less (almost no effect))
- herbicidal effect on L: windgrass [26]: 0 (Herbicidal rate of 5% or less (almost no effect))
- herbicidal effect on O: lambsquarters [27]: 0 (Herbicidal rate of 5% or less (almost no effect))
- M: velvetleaf, herbicidal effect (criteria 0-5) [28, 31]: 5 (Herbicidal rate of 90% or more (almost completely withered))
- J: blackgrass, herbicidal effect (criteria 0-5) [29, 31]: 0 (Herbicidal rate of 5% or less (almost no effect))
- herbicidal effect rating, C: oval-leafed pondweed [30]: 0 (Herbicidal rate of 5% or less (almost no effect))

Compound: CCc1nn(C)c(=O)c(-c2c(-c3ccc(F)cc3)sc3ccc(F)cc23)c1O [2-406]
- herbicidal effect rating, A: late watergrass [1]: 2 (Herbicidal rate of 20% or more and less than 40%)
- G: green foxtail, herbicidal effect grade [2, 32]: 5 (Herbicidal rate of 90% or more (almost completely withered))
- L: windgrass, herbicidal effect grade [3, 32]: 4 (Herbicidal rate of 70% or more and less than 90%)
- herbicidal effect, I: wild oat [4]: 0 (Herbicidal rate of 5% or less (almost no effect))
- K: Italian ryegrass, herbicidal effect grade [5, 32]: 4 (Herbicidal rate of 70% or more and less than 90%)
- herbicidal effect, G: green foxtail [6]: 4 (Herbicidal rate of 70% or more and less than 90%)
- herbicidal effect, P: chickweed [7]: 3 (Herbicidal rate of 40% or more and less than 70%)
- H: barnyard grass, herbicidal effect grade [8, 32]: 4 (Herbicidal rate of 70% or more and less than 90%)
- herbicidal effect, F: southern crabgrass [9]: 2 (Herbicidal rate of 20% or more and less than 40%)
- herbicidal effect on D: Chinese sprangletop [10]: 4 (Herbicidal rate of 70% or more and less than 90%)
- P: chickweed, herbicidal effect grade [11, 32]: 5 (Herbicidal rate of 90% or more (almost completely withered))
- herbicidal effect, K: Italian ryegrass [12]: 3 (Herbicidal rate of 40% or more and less than 70%)
- herbicidal effect, H: barnyard grass [13]: 4 (Herbicidal rate of 70% or more and less than 90%)
- herbicidal effect, M: velvetleaf [14]: 3 (Herbicidal rate of 40% or more and less than 70%)
- herbicidal effect, N: redroot pigweed [15]: 4 (Herbicidal rate of 70% or more and less than 90%)
- herbicidal effect, R: persian speedwell [16]: 0 (Herbicidal rate of 5% or less (almost no effect))
- herbicidal effect on H: barnyard grass [17]: 4 (Herbicidal rate of 70% or more and less than 90%)
- N: redroot pigweed, herbicidal effect grade [18, 32]: 5 (Herbicidal rate of 90% or more (almost completely withered))
- herbicidal effect on E: rice flat sedge [19]: 5 (Herbicidal rate of 90% or more (almost completely withered))
- F: southern crabgrass, herbicidal effect grade [20, 32]: 3 (Herbicidal rate of 40% or more and less than 70%)
- herbicidal effect rating, B: Japanese bulrush [21]: 0 (Herbicidal rate of 5% or less (almost no effect))
- O: lambsquarters, herbicidal effect grade [22, 32]: 4 (Herbicidal rate of 70% or more and less than 90%)
- R: persian speedwell, herbicidal effect grade [23, 32]: 5 (Herbicidal rate of 90% or more (almost completely withered))
- herbicidal effect, J: blackgrass [24]: 0 (Herbicidal rate of 5% or less (almost no effect))
- I: wild oat, herbicidal effect grade [25, 32]: 0 (Herbicidal rate of 5% or less (almost no effect))
- herbicidal effect, L: windgrass [26]: 0 (Herbicidal rate of 5% or less (almost no effect))
- herbicidal effect, O: lambsquarters [27]: 3 (Herbicidal rate of 40% or more and less than 70%)
- M: velvetleaf, herbicidal effect grade [28, 32]: 5 (Herbicidal rate of 90% or more (almost completely withered))
- J: blackgrass, herbicidal effect grade [29, 32]: 3 (Herbicidal rate of 40% or more and less than 70%)
- herbicidal effect rating, C: oval-leafed pondweed [30]: 0 (Herbicidal rate of 5% or less (almost no effect))
